Reference: PubChem BioAssay AID330 (DTP/NCI, 2004)
Where “and” joins values, the source holds several entries; their conditions need not be identical. Equal entries are not always repeated. Inconclusive results and toxic doses are left out. The calls were made as follows: active = survival T/C of 150% or more; inactive = T/C below 125% in these data.

System: P388 leukemia ip, CD2F1 mice, survival T/C
Assay: NCI In Vivo Anticancer Drug Screen. Data for tumor model P388 Leukemia (intraperitoneal) in CD2F1 (CDF1) mice
Settings: endpoint: median survival time, higher = longer survival
How it was run: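 Mice carrying the transplanted tumor received test compound or vehicle. Survival was recorded in each group, and the value is the treated-group measurement divided by that of the vehicle-treated control group.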

[1] = dose: 100.0 mg/kg/injection, schedule: Q04DX003 (ip), vehicle: saline
[2] = dose: 200.0 mg/kg/injection, schedule: Q04DX003 (ip), vehicle: saline
[3] = dose: 25.0 mg/kg/injection, schedule: Q01DX009 (ip), vehicle: distilled water + Tween-80
[4] = dose: 50.0 mg/kg/injection, schedule: Q01DX009 (ip), vehicle: distilled water + Tween-80
[5] = dose: 100.0 mg/kg/injection, schedule: Q01DX009 (ip), vehicle: distilled water + Tween-80
[6] = dose: 50.0 mg/kg/injection, schedule: Q01DX005 (ip), vehicle: saline with Tween-80
[7] = dose: 100.0 mg/kg/injection, schedule: Q01DX005 (ip), vehicle: saline with Tween-80
[8] = dose: 200.0 mg/kg/injection, schedule: Q01DX005 (ip), vehicle: saline with Tween-80
[9] = dose: 12.5 mg/kg/injection, schedule: Q01DX005 (ip), vehicle: Klucel + Tween-80
[10] = dose: 25.0 mg/kg/injection, schedule: Q01DX005 (ip), vehicle: Klucel + Tween-80
[11] = dose: 50.0 mg/kg/injection, schedule: Q01DX005 (ip), vehicle: Klucel + Tween-80
[12] = dose: 60.0 mg/kg/injection, schedule: Q01DX005 (ip), vehicle: saline with Tween-80
[13] = dose: 120.0 mg/kg/injection, schedule: Q01DX005 (ip), vehicle: saline with Tween-80
[14] = dose: 240.0 mg/kg/injection, schedule: Q01DX005 (ip), vehicle: saline with Tween-80
[15] = dose: 50.0 mg/kg/injection, schedule: Q01DX009 (ip), vehicle: Klucel (hydroxypropylcellulose) (HPC)
[16] = dose: 100.0 mg/kg/injection, schedule: Q01DX009 (ip), vehicle: Klucel (hydroxypropylcellulose) (HPC)
[17] = dose: 200.0 mg/kg/injection, schedule: Q01DX009 (ip), vehicle: Klucel (hydroxypropylcellulose) (HPC)
[18] = dose: 100.0 mg/kg/injection, schedule: Q01DX005 (ip), vehicle: Klucel + Tween-80
[19] = dose: 200.0 mg/kg/injection, schedule: Q01DX005 (ip), vehicle: Klucel + Tween-80
[20] = dose: 50.0 mg/kg/injection, schedule: Q01DX005 (ip), vehicle: Klucel (hydroxypropylcellulose) (HPC)
[21] = dose: 100.0 mg/kg/injection, schedule: Q01DX005 (ip), vehicle: Klucel (hydroxypropylcellulose) (HPC)
[22] = dose: 200.0 mg/kg/injection, schedule: Q01DX005 (ip), vehicle: Klucel (hydroxypropylcellulose) (HPC)

Measured: T/C

C=C1CC2(CC(C)CCC2=C(C)C)OC1=O (configuration not stated)
inactive: dose: 100.0 mg/kg/injection, schedule: Q01DX001 (ip), vehicle: saline 101 % of control | dose: 200.0 mg/kg/injection, schedule: Q01DX001 (ip), vehicle: saline 100 % of control | dose: 400.0 mg/kg/injection, schedule: Q01DX001 (ip), vehicle: saline 101 % of control

O=C(CCNC(=O)OCc1ccccc1)NC(CSCc1ccccc1)C(=O)O (configuration not stated)
inactive: dose: 6.25 mg/kg/injection, schedule: Q01DX009 (ip), vehicle: water 100 % of control | dose: 12.5 mg/kg/injection, schedule: Q01DX009 (ip), vehicle: water 100 % of control | dose: 25.0 mg/kg/injection, schedule: Q01DX009 (ip), vehicle: water 95 % of control | dose: 50.0 mg/kg/injection, schedule: Q01DX009 (ip), vehicle: water 100 % of control | dose: 100.0 mg/kg/injection, schedule: Q01DX009 (ip), vehicle: water 95 % of control

CCCCCCCCCCCC[S][Sn]([CH2]CCC)([S]CCCCCCCCCCCC)[S]CCCCCCCCCCCC
inactive: dose: 50.0 mg/kg/injection, schedule: Q01DX009 (ip), vehicle: saline 87 % of control | dose: 100.0 mg/kg/injection, schedule: Q01DX009 (ip), vehicle: saline 99 % of control | dose: 200.0 mg/kg/injection, schedule: Q01DX009 (ip), vehicle: saline 95 % of control

OC1COCC2N3C(=NN12)Sc1ccccc13 (configuration not stated)
inactive: [1] 105 % of control | [2] 107 % of control | dose: 400.0 mg/kg/injection, schedule: Q04DX003 (ip), vehicle: saline 98 % of control

O=[N+]([O-])c1ccc(-c2c[s+]cs2)cc1
inactive: dose: 6.25 mg/kg/injection, schedule: Q01DX009 (ip), vehicle: distilled water + Tween-80 101 % of control | dose: 12.5 mg/kg/injection, schedule: Q01DX009 (ip), vehicle: distilled water + Tween-80 101 % of control | [3] 108 % of control | [4] 95 % of control | [5] 104 % of control

CCOC(=O)c1sc(=S)n(C(C)C)c1C
inactive: dose: 12.5 mg/kg/injection, schedule: Q01DX005 (ip), vehicle: saline with Tween-80 101 % of control | dose: 25.0 mg/kg/injection, schedule: Q01DX005 (ip), vehicle: saline with Tween-80 101 % of control | [6] 101 % of control and 102 % of control | [7] 100 % of control | [8] 98 % of control

C1CCN2COCC2C1 (configuration not stated)
inactive: dose: 12.5 mg/kg/injection, schedule: Q01DX005 (ip), vehicle: saline 108 % of control | dose: 25.0 mg/kg/injection, schedule: Q01DX005 (ip), vehicle: saline 117 % of control | dose: 100.0 mg/kg/injection, schedule: Q01DX005 (ip), vehicle: saline 120 % of control and 122 % of control

CC1(C)OC2OC(C3CSC(=S=O)S3)C(O)C2O1 (configuration not stated)
inactive: [9] 95 % of control | [10] 100 % of control | [11] 103 % of control

O=c1c2cc3c(=O)n(CC[P+](c4ccccc4)(c4ccccc4)c4ccccc4)c(=O)c3cc2c(=O)n1CC[P+](c1ccccc1)(c1ccccc1)c1ccccc1
inactive: dose: 0.78 mg/kg/injection, schedule: Q01DX009 (ip), vehicle: water 99 % of control | dose: 1.56 mg/kg/injection, schedule: Q01DX009 (ip), vehicle: water 97 % of control | dose: 3.13 mg/kg/injection, schedule: Q01DX009 (ip), vehicle: water 93 % of control

O=C(Oc1ccc2c(=O)cc(-c3ccccc3)oc2c1OC(=O)c1ccccc1)c1ccccc1
inactive: [12] 94 % of control | [13] 93 % of control | [14] 90 % of control

C=C(C)[C@@H]1CC[C@]2(C(=O)OC)CC[C@]3(C)[C@H](CC[C@@H]4[C@@]5(C)CC[C@H](O)C(C)(C)[C@@H]5CC[C@]43C)[C@@H]12
inactive: dose: 25.0 mg/kg/injection, schedule: Q01DX009 (ip), vehicle: Klucel (hydroxypropylcellulose) (HPC) 107 % of control | [15] 102 % of control | [16] 98 % of control | [17] 102 % of control

Cc1ccc(NC(=S)N2CCCC2)cc1C
inactive: [15] 100 % of control and 101 % of control | [16] 109 % of control | [17] 91 % of control and 98 % of control

CC(C)NC(=O)OCc1c(COC(=O)NC(C)C)c(-c2ccc(Cl)c(Cl)c2)n2c1CS(=O)C2 (configuration not stated)
inactive: [9] 99 % of control | [10] 97 % of control | [11] 92 % of control | [18] 89 % of control | [19] 104 % of control and 89 % of control

CCOC(=O)CNCc1cccnc1
inactive: dose: 12.5 mg/kg/injection, schedule: Q04DX003 (ip), vehicle: saline 103 % of control | dose: 25.0 mg/kg/injection, schedule: Q04DX003 (ip), vehicle: saline 106 % of control and 94 % of control | dose: 50.0 mg/kg/injection, schedule: Q04DX003 (ip), vehicle: saline 100 % of control and 103 % of control | [1] 104 % of control and 94 % of control | [2] 97 % of control

O=C(O)c1cc(-c2ccccc2Cl)nc2cc3ccccc3cc12
inactive: [15] 111 % of control | [16] 101 % of control | [17] 101 % of control

CCCCC(NC(=O)OCc1ccccc1)C(=O)NC(CC(C)C)C(=O)O (configuration not stated)
inactive: [20] 100 % of control | [21] 100 % of control | [22] 92 % of control

CC(=O)O[C@]1(C(C)=O)CC[C@H]2[C@@H]3C[C@H](C)C4=CC(=O)NCC[C@]4(C)[C@H]3CC[C@@]21C
inactive: [11] 98 % of control | [18] 93 % of control | [19] 94 % of control

O=C(N/N=C/c1cccc(O)c1O)N/N=C/c1cccc(O)c1O
inactive: [3] 104 % of control and 109 % of control | [4] 109 % of control (2×) and 116 % of control | [5] 118 % of control and 119 % of control | dose: 200.0 mg/kg/injection, schedule: Q01DX009 (ip), vehicle: distilled water + Tween-80 118 % of control and 95 % of control | dose: 400.0 mg/kg/injection, schedule: Q01DX009 (ip), vehicle: distilled water + Tween-80 91 % of control

CC1CN(Cc2ccccc2)CC(C)N1Cc1ccccc1 (configuration not stated)
inactive: [6] 103 % of control | [7] 105 % of control | [8] 103 % of control

COc1ccc2c3c([nH]c2c1)[C@H]1C[C@H]2[C@H](C[C@@H](O)[C@H](OC)[C@H]2C(=O)O)CN1CC3
inactive: [20] 100 % of control | [21] 100 % of control | [22] 101 % of control

Cc1cc(=O)oc2nn(CCO)c(C)c12
inactive: [12] 105 % of control | [13] 100 % of control | [14] 91 % of control

O=c1[nH]nc(NC2Nc3ccccc3N2)c2ccccc12
inactive: [12] 97 % of control | [13] 96 % of control | [14] 96 % of control

O=S(=O)(CC(O)C(Cl)(Cl)Cl)N1CCCCC1 (configuration not stated)
inactive: [15] 101 % of control | [16] 95 % of control | [17] 100 % of control

O=c1[nH][nH]c(O)c1-c1ccc(-c2c(O)[nH][nH]c2=O)cc1
inactive: [20] 105 % of control | [21] 105 % of control | [22] 101 % of control

Nc1ccc2c(SCCSc3c4ccccc4nc4cc(N)ccc34)c3ccccc3nc2c1
inactive: [12] 97 % of control | [13] 100 % of control
